Results on 1 compound are retold here after PMC8781550, “The Effect of pH and Sodium Caseinate on the Aqueous Solubility, Stability, and Crystallinity of Rutin towards Concentrated Colloidally Stable Particles for the Incorporation into Functional Foods” (Molecules, 2022).

On the set-up of series [1]: method as in PMID 25496805, PMID 20201551. The settings on record: cited from earlier work.
The conditions of series [2]: cited from earlier work.
Series [3] is described as follows: Crystallinity of dried rutin at each pH (XRD). In kind it is physicochemical. The method, then:
To study the crystallinity of rutin at each pH, samples of rutin at each pH were stored in a desiccator with silica beads (25 °C) to dry and crystallize. The dried materials were ground using a mortar and pestle and then were analysed for the degree of crystallinity at 20.0 °C using a Rigaku Rapid image-plate detector (Rigaku, The Woodlands, TX, USA) set at 127.40 mm. The Cu Kα radiation (λ = 1.540562 Å) was generated by a Rigaku MicroMax007 microfocus (rotating anode generator; Rigaku, The Woodlands, TX, USA) and an Osmic-Rigaku metal multi-layer optic device (Rigaku, USA) was used for focusing and monochromation. Samples were mounted in Hampton CryoLoops (Hampton Research, Aliso Viejo, CA, USA), and data collection was under the control of RAPID II software (Version 2.4.2, Rigaku, USA). The data were background corrected and converted to a line profile with 2DP programme (Version 1.0.3.4, Rigaku, USA), and the resulting diffractograms were compared using CrystalDiffract software (Version 6.5.5, CrystalMaker Software Ltd., Oxfordshire, UK). A 2θ angle range of 5° to 100° was used for the analysis of all the samples.

Series [4] is described as follows: Aqueous solubility (recovery) of rutin at various pH (centrifugation, HPLC of supernatant). Format: physicochemical. The method, then: Rutin was mixed with Milli-Q® (MilliporeSigma, Burlington, MA, USA) water at various concentrations (0.01 to 10% w/v) and the pH of the mixtures increased gradually (while stirring at 300 rpm) until the full dissolution was achieved. […] Then, the pH was increased further until the complete dissolution. […] Samples were taken at each pH point (i.e., pH 1–11) and at each concentration of rutin.
In order to determine the optimum amount of both rutin and NaCas to achieve the best loading, various concentrations of rutin (0.01–4% w/v) were dissolved in a solution of NaCas (0.2–8% w/v) at pH 11, which was then acidified down to pH 6, where the precipitates were formed. A duration of 15 min between each pH adjustment was allowed, and samples were taken along the process at every pH point (i.e., pH 11, 9, 8, 7, and 6; pH below 6 was not considered as the sample withdrawal was not practical due to the co-precipitation of NaCas and rutin). The withdrawn samples were left for 30 min for the complete formation of the possible precipitates. Each sample was then divided into two equal parts; the first part was centrifuged (3000× g, 20 °C, 10 min) in the Amicon Ultra-15 Centrifugal Filter Units containing a cellulose membrane with a molecular weight cut-off of […] (Ultracel-100K, Millipore, Burlington, MA, USA) to remove both precipitates and colloidally stable complexes, while the second part was simply filtered using a 0.45 µm membrane (Millipore) to remove the precipitates only. The concentration of rutin in the ultrafiltrates, as well as the filtrates (the second part), was determined using HPLC analysis, and the rutin recovery% was calculated correspondingly. As the control, the same concentration of rutin (1%) was also treated and analysed the same way as the rutin–NaCas mixture. In this study, for simplicity, the recovery % of rutin is referred to as its solubility.

Details of series [5]: method as in doi:10.1016/j.foodhyd.2019.05.032. The settings on record: cited from earlier work.
Series [6] in a line: Chemical stability of rutin at alkaline pH (HPLC). Format: physicochemical. The settings on record: rutin 1% w/v dissolved at pH 11.0 and kept for 30 min.

As usually defined, the logP is a log measure of how a compound divides between an organic and an aqueous phase. With `C[C@@H]1O[C@@H](OC[C@H]2O[C@@H](Oc3c(-c4ccc(O)c(O)c4)oc4cc(O)cc(O)c4c3=O)[C@H](O)[C@@H](O)[C@@H]2O)[C@H](O)[C@H](O)[C@H]1O` [rutin], the logP in series [1] is 0.15. The Decomposition of rutin entry in series [2] (0.2 M NaOH, with or without beta-cyclodextrin) is given as “slow decomposition”. For the same compound, in series [2] (after 5 h, pH constantly adjusted to 8), the Rutin concentration remaining entry is on record as “approximately 20%”. In series [2] (weak acidic conditions (pH 5)), the Rutin concentration result is “remained almost unchanged”. For the same compound, the “Crystallinity of dried rutin particles (XRD)” value in series [3] (pH 11 and 10) was “amorphous”; in series [3] (pH < 8), “crystalline form”; in series [3] (pH close to 1.0), “crystalline rutin was not present”. Besides, the “Aqueous solubility of rutin” value in series [4] (0.01% w/v rutin in water, regardless of the pH) is listed as “most of the rutin was soluble”. Moreover, in series [4] (dispersion containing 5% rutin, pH 9), the “Aqueous solubility (recovery): fraction of rutin soluble” value is on record as “about 90%”. The “Concentration of rutin that could be dissolved” value in series [4] (pH 11.0) is on record as 10 % (w/v). Moreover, the “Solubility (recovery) of rutin” value in series [4] (pH < 6, 1% w/v rutin, regardless of association with NaCas) is listed as “almost all rutin was precipitated”. Also, in series [5], the Solubility in ethanol entry is reported as “about 4 % w/v”. For the same compound, the “Decrease in initial concentration of rutin (chemical stability)” value in series [6] is about 10%.
